The data set can be described thus: in vitro. Conditions: human, hela cells, % viability.

The viability is a read-out of living cells in per cent, often relative to untreated cells.

On to `C(=N\c1nc2ccccc2n1CCN1CCOCC1)/c1ccc2c(c1)OCO2` [CBK262270], for which the viability at 28.5 h, 10 µM was found to be 109%.

For the compound `O=C(Oc1cccc(NC(=O)c2ccco2)c1)c1cccc(S(=O)(=O)N2CCOCC2)c1` [CBK262272], the viability at 28.5 h, 10 µM came out at 97.2%.

On to `O=[N+]([O-])c1ccc(CNCCc2c[nH]c3ccccc23)cc1` [CBK262275], for which the viability at 28.5 h, 10 µM worked out at 80.4%.

On to `COc1ccc(C(=O)/C=C/Nc2ccc(S(=O)(=O)NC(=N)N)cc2)cc1` [CBK262277], for which the viability at 28.5 h, 10 µM stood at 84.1%.

With `O=C/C(=C\Nc1ccc(S(=O)(=O)N2CCCCC2)cc1)c1nc2ccccc2o1` [CBK262281], the viability at 28.5 h, 10 µM worked out at 99.2%.

For the compound `O=C(/C=C/c1cccc([N+](=O)[O-])c1)NCCN1CCOCC1` [CBK262283], the viability at 28.5 h, 10 µM is 90.5%.

For the compound `CCc1cc2c(=O)c(-c3nc4ccccc4s3)coc2c(CN2CCCCC2)c1O` [CBK262284], the viability at 28.5 h, 10 µM stood at 86.1%.

Regarding `COc1cc(-c2nc3ccccn3c2/N=C/c2ccc(-c3ccc([N+](=O)[O-])cc3)o2)ccc1O` [CBK262288], the viability at 28.5 h, 10 µM came to 79.8%.

With `O=C(N/N=C\c1cccc(OC(=O)c2cccs2)c1)c1ccc([N+](=O)[O-])cc1` [CBK262289], the viability at 28.5 h, 10 µM worked out at 77.3%.

Turning to `CC(C)Cn1c(=O)c(C(=O)Nc2ccccc2S(N)(=O)=O)c(O)c2ccccc21` [CBK262290], the viability at 28.5 h, 10 µM was determined as 93.1%.

As for `O=S(=O)(NCc1ccccn1)c1ccc(Br)cc1Br` [CBK262291], the viability at 28.5 h, 10 µM was found to be 93.2%.

On to `COc1ccccc1CCNCc1ccc([N+](=O)[O-])cc1` [CBK262292], for which, for the setting “bulk resorufin, single well”, the viability at 28.5 h, 10 µM was determined as 93.3%.

On to `O=C(COc1cccc(Cl)c1)N/N=C\c1ccc(C(=O)O)cc1` [CBK262293], for which the viability at 28.5 h, 10 µM was 102%.

As to `OCCNc1nc2cc(Cl)ccc2[nH]1` [CBK262295], the viability at 28.5 h, 10 µM came to 101%.

Consider `O=C(N/N=C/c1cc(O)c(Br)cc1Br)c1ccncc1` [CBK262297], for which the viability at 28.5 h, 10 µM is 76.8%.

Regarding `O=[N+]([O-])c1ccc(C2CNC(c3ccccc3O)O2)cc1` (stereo not shown) [CBK262298], the viability at 28.5 h, 10 µM came out at 94%.

With `O=C(c1ccoc1)N1CCN(S(=O)(=O)c2ccc3c(c2)Cc2cc(S(=O)(=O)N4CCN(C(=O)c5ccco5)CC4)ccc2-3)CC1` [CBK262299], the viability at 28.5 h, 10 µM came out at 113%.

As for `O=C1CCCN1CP(=O)(O)CN1CCCCC1` [CBK262302], the viability at 28.5 h, 10 µM came to 85.6%.

In the case of `COc1ccccc1/C=C/C1=NN(c2ccc(F)cc2)C(c2ccccc2OC)C1` (stereo not shown) [CBK262303], the viability at 28.5 h, 10 µM was 81.1%.

`O=C(O)c1cc(C(=O)O)c2ccccc2n1` [CBK262304]: the viability at 28.5 h, 10 µM is 82.1%.

In the case of `Cc1ccc(/N=N/c2c(O)c(C(=O)Nc3ccc4c(c3)c(=O)[nH]c3ccccc34)cc3ccccc23)c(Cl)c1` [CBK262306], the viability at 28.5 h, 10 µM was determined as 92.7%.

`CC(=O)OC(Cn1c2ccccc2c2ccccc21)Cn1c2ccccc2c2ccccc21` [CBK262307]: the viability at 28.5 h, 10 µM worked out at 104%.

On to `O=P(O)(CN1CCCCCC1)CN1CCCCCC1` [CBK262311], for which the viability at 28.5 h, 10 µM is 92.1%.

Consider `O=P(O)(CCc1ccccn1)CN1CCCCC1` [CBK262312], for which the viability at 28.5 h, 10 µM amounted to 97.2%.

On to `OCCNc1nc(-c2cccnc2)nc2ccccc12` [CBK262314], for which the viability at 28.5 h, 10 µM is 105%.

Regarding `O=c1c2cnn(-c3ccccc3)c2nc(Cc2ccccc2)n1-c1cccc2ccccc12` [CBK262316], the viability at 28.5 h, 10 µM was 82.1%.

Take `O=P(O)(CCc1ccccc1)CN1CCCCC1` [CBK262318]: the viability at 28.5 h, 10 µM is 78.6%.

As for `O=C(O)CCSc1c[nH]c2ccccc12` [CBK262319], the viability at 28.5 h, 10 µM worked out at 94.5%.

In the case of `O=C(Nc1ccc(-c2ccc(NC(=O)c3ccncc3)cc2)cc1)c1ccncc1` [CBK262321], the viability at 28.5 h, 10 µM stood at 98.9%.

Turning to `O=P(O)(CCc1ccncc1)CN1CCCCC1` [CBK262323], the viability at 28.5 h, 10 µM worked out at 104%.

With `O=C(COC(=O)c1ccc2c(c1)C(=O)N(c1cccc(Cl)c1)C2=O)c1ccc(Br)cc1` [CBK262324], the viability at 28.5 h, 10 µM came out at 94%.

On to `O=C(CN(c1ccccc1)S(=O)(=O)c1ccccc1[N+](=O)[O-])NC1CCCCC1` [CBK262328], for which the viability at 28.5 h, 10 µM stood at 89.3%.

Consider `Fc1ccc(Br)cc1SCCc1ccccn1` [CBK262330G], for which the viability at 28.5 h, 10 µM came out at 86.7%.

With `O=C(Cn1nnc(-c2ccccc2Cl)n1)N/N=C/c1cn(Cc2ccc(Cl)cc2)c2ccccc12` [CBK262333], the viability at 28.5 h, 10 µM worked out at 107%.

On to `O=[N+]([O-])c1ccc(-c2nc3ccc(Br)cn3[n+]2[O-])cc1` [CBK262335], for which the viability at 28.5 h, 10 µM amounted to 96.5%.

As for `CN1CCC(=NNC(=O)CN(c2ccc(Oc3ccccc3)cc2)S(C)(=O)=O)CC1` [CBK262338], the viability at 28.5 h, 10 µM was found to be 93.2%.

`CSc1ccc(/C=C(\C#N)c2nn(-c3ccccc3)c(N)c2C#N)cc1` [CBK262339]: the viability at 28.5 h, 10 µM was 105%.

For `COc1ccc(/C=N/NC(=O)CCn2c3ccccc3c3ccccc32)cc1O` [CBK262343], the viability at 28.5 h, 10 µM worked out at 46%.

Regarding `O=C(NCCNc1ccc([N+](=O)[O-])cc1Cl)c1ccc(F)cc1` [CBK262344], the viability at 28.5 h, 10 µM worked out at 86.6%.

As to `COc1ccc(CCN(C(C)=O)C2CC(=O)N(c3ccccc3)C2=O)cc1OC` (stereo not shown) [CBK262349], the viability at 28.5 h, 10 µM was found to be 89.5%.

Consider `COc1cc(/C=N/NC(=O)CCn2c3ccc(Cl)cc3c3cc(Cl)ccc32)ccc1O` [CBK262351], for which the viability at 28.5 h, 10 µM was determined as 112%.

For `N#C/C(=C\C=C\c1ccc([N+](=O)[O-])cc1)c1nc(-c2cc3cc([N+](=O)[O-])ccc3oc2=O)cs1` [CBK262357], the viability at 28.5 h, 10 µM was found to be 93.7%.

For the compound `Cc1cc(C)n(-c2cc(C)c3ccccc3n2)n1` [CBK262358], the viability at 28.5 h, 10 µM is 81.9%.

Regarding `O=C(O)CCSCc1ccc([N+](=O)[O-])cc1` [CBK262359], the viability at 28.5 h, 10 µM amounted to 103%.

On to `O=C(CSc1nc2ccccc2s1)OCC(=O)c1cccc([N+](=O)[O-])c1` [CBK262361], for which the viability at 28.5 h, 10 µM is 111%.

In the case of `CC1(C)CC(NC(=O)C(=O)NCCc2ccc(Cl)cc2)CC(C)(C)N1` [CBK262363], the viability at 28.5 h, 10 µM amounted to 83.8%.

Regarding `O=C(O)c1ccc(S(=O)(=O)NCC2CCCO2)cc1` (stereo not shown) [CBK262364], the viability at 28.5 h, 10 µM amounted to 79.8%.

As for `CCSc1nnc2c(n1)OC(C1CC=C(C)CC1)Nc1ccccc1-2` (stereo not shown) [CBK262367], the viability at 28.5 h, 10 µM stood at 95.5%.

In the case of `N#C/C(=C\c1ccc(O)cc1)c1nc(-c2ccc3c(c2)OCO3)cs1` [CBK262370], the viability at 28.5 h, 10 µM is 96.8%.

Turning to `O=C(O)c1ccc(/C=N/Nc2cccc3cccnc23)cc1` [CBK262372], the viability at 28.5 h, 10 µM came out at 74.4%.

As to `Cc1cccc2c1[nH]c1nc(N/N=C\c3ccc(-c4cccc([N+](=O)[O-])c4)o3)nnc12` [CBK262373], the viability at 28.5 h, 10 µM is 96%.

Take `COc1ccc(-c2csc(/C(C#N)=C/Nc3ccc(S(=O)(=O)Nc4nccs4)cc3)n2)cc1` [CBK262374]: the viability at 28.5 h, 10 µM is 94.6%.

As to `CC(=O)Nc1ccc(N/C=C(/C#N)c2nc(-c3ccc([N+](=O)[O-])cc3)cs2)cc1` [CBK262377], the viability at 28.5 h, 10 µM was found to be 106%.

Consider `Cc1cccc(Nc2nc3nonc3[nH]/c2=N\N=C/c2cn(Cc3ccc(Cl)cc3Cl)c3ccccc23)c1C` [CBK262378], for which the viability at 28.5 h, 10 µM is 93.3%.

For the compound `COc1cc(C2C3=C(CC(C)(C)CC3=O)OC3=C2C(=O)CC(C)(C)C3)ccc1OCC(=O)O` [CBK262379], the viability at 28.5 h, 10 µM stood at 94.8%.

Turning to `CN1CCN(c2cc(N3CCN(C)CC3)c([N+](=O)[O-])cc2C2Nc3ccc4ccccc4c3C3=C2C(=O)CC(C)(C)C3)CC1` (stereo not shown) [CBK262381], the viability at 28.5 h, 10 µM was 93.9%.

In the case of `CN1CCN(C(=O)CCCN2C(=O)c3cccc4cccc(c34)C2=O)CC1` [CBK262383], the viability at 28.5 h, 10 µM amounted to 96.9%.

Turning to `O=S(=O)(Oc1ccc2ccccc2c1)c1ccc2c(c1)Cc1cc(S(=O)(=O)Oc3ccc4ccccc4c3)ccc1-2` [CBK262385], the viability at 28.5 h, 10 µM stood at 105%.

In the case of `COc1ccc(CN(/N=N/c2nonc2C)c2nonc2C)cc1[N+](=O)[O-]` [CBK262386], the viability at 28.5 h, 10 µM was determined as 99.3%.

`Cc1ccc(S(=O)(=O)N(CC(=O)O)c2cccc(Cl)c2)cc1` [CBK262387]: the viability at 28.5 h, 10 µM stood at 91.7%.

As to `COC(=O)c1ccccc1NC(=O)C(C)Oc1ccc(Cl)cc1C` (stereo not shown) [CBK262388], the viability at 28.5 h, 10 µM is 79.2%.

Turning to `COc1ccc(N(C(C)C(=O)NN=C2CCN(C)CC2)S(C)(=O)=O)cc1` (stereo not shown) [CBK262390], the viability at 28.5 h, 10 µM stood at 94.2%.

In the case of `O=C1NC(=S)NC(=O)C1=CNc1ccc(F)c(Cl)c1` [CBK262391], the viability at 28.5 h, 10 µM (bulk resorufin, single well) amounted to 118%.

As for `Cc1cc(C)cc(OCC(=O)NNC(=O)CN2C(=O)c3ccccc3C2=O)c1` [CBK262394], the viability at 28.5 h, 10 µM was determined as 91.4%.

Consider `O=C(CN1C(=O)S/C(=C\c2ccc(Cl)cc2)C1=O)Nc1cc([N+](=O)[O-])ccc1O` [CBK262396], for which the viability at 28.5 h, 10 µM worked out at 90.4%.

`Cc1ccc(N(CC(=O)N/N=C/C(C)C)S(=O)(=O)c2ccccc2)c(C)c1` [CBK262397]: the viability at 28.5 h, 10 µM amounted to 92.5%.

In the case of `Cc1nonc1/N=N/N(CC(=O)N1CCOCC1)c1nonc1C` [CBK262399], the viability at 28.5 h, 10 µM came out at 103%.

In the case of `O=C(N/N=C/c1c(O)ccc2ccccc12)c1cnccn1` [CBK262400], the viability at 28.5 h, 10 µM came out at 105%.

As for `O=C(CSc1ncccn1)N/N=C/c1ccncc1` [CBK262401], the viability at 28.5 h, 10 µM is 103%.

With `COc1ccc(N(C(C)C(=O)N/N=C(\C)c2ccccc2O)S(C)(=O)=O)cc1` (stereo not shown) [CBK262402], the viability at 28.5 h, 10 µM amounted to 93.4%.

Consider `CCOc1cc(/C=N/NC(=O)CSc2nc(C)cc(C)n2)ccc1O` [CBK262405], for which the viability at 28.5 h, 10 µM was 96.1%.

With `Cc1ccc2ccccc2c1CN(/N=N/c1nonc1C)c1nonc1C` [CBK262412], the viability at 28.5 h, 10 µM amounted to 99.6%.

For `CN(C)c1ccc(NC(=O)C(Cc2ccccc2)N2C(=O)c3ccccc3C2=O)cc1` (stereo not shown) [CBK262413], the viability at 28.5 h, 10 µM was 99.6%.

`COc1ccc(N(CC(=O)O)S(=O)(=O)c2ccccc2)c(OC)c1` [CBK262415]: the viability at 28.5 h, 10 µM was determined as 108%.

Turning to `CCc1nnc(NS(=O)(=O)c2ccc(N/C=C3\C(=O)N(c4ccc(Cl)cc4)N=C3C)cc2)s1` [CBK262416], the viability at 28.5 h, 10 µM is 110%.

Regarding `N#Cc1c(NC(=O)CSc2nnc3c(n2)[nH]c2ccccc23)sc2c1CCCC2` [CBK262417], the viability at 28.5 h, 10 µM came to 93%.
